The record followed here is the supplement of paper PMC10307832.

Holding throughout (test): relative viability (nuclei count vs DMSO), 5 days (fraction); higher = more cells survive
Compound in the experiment “Irinotecan + Crizotinib”: CCc1c2c(nc3ccc(OC(=O)N4CCC(N5CCCCC5)CC4)cc13)-c1cc3c(c(=O)n1C2)COC(=O)[C@]3(O)CC [Irinotecan] + C[C@@H](Oc1cc(-c2cnn(C3CCNCC3)c2)cnc1N)c1c(Cl)ccc(F)c1Cl [Crizotinib] (partner 1 µM)
Put shortly: (§1)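 Nuclei were stained with Hoechst during a one-step fixation (final 0.05% Triton X-100, 1% formaldehyde, 1 ug/ml Hoechst) carried out 5 days after dosing, then counted on 4× images. The cells, lung cancer lines in 1536-well plates, had been dosed by pin tool the day after seeding with one drug alone or a fixed anchor-drug dose plus five library-drug doses (not always all listed) in √10 steps. Relative viability is the nuclei count in treated wells divided by that in vehicle wells, and each value is the median of duplicate plates.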

Compound in the experiment “Irinotecan + Alpelisib”: CCc1c2c(nc3ccc(OC(=O)N4CCC(N5CCCCC5)CC4)cc13)-c1cc3c(c(=O)n1C2)COC(=O)[C@]3(O)CC [Irinotecan] + Cc1nc(NC(=O)N2CCC[C@H]2C(N)=O)sc1-c1ccnc(C(C)(C)C(F)(F)F)c1 [Alpelisib] (partner 2 µM)
Put shortly: as §1

Compound in the experiment “MK-8033 + Alpelisib”: Cn1cc(-c2cnc3ccc4ccc(CS(=O)(=O)NCc5ccccn5)cc4c(=O)c3c2)cn1 [MK-8033] + Cc1nc(NC(=O)N2CCC[C@H]2C(N)=O)sc1-c1ccnc(C(C)(C)C(F)(F)F)c1 [Alpelisib] (partner 2 µM)
Put shortly: as §1

Compound in the experiment “RU-SKI 43 + Alpelisib”: CC[C@@H](C)CNCC(=O)N1CCC2=C([C@@H]1COC3=CC=CC(=C3)C)C=CS2 [RU-SKI 43] + Cc1nc(NC(=O)N2CCC[C@H]2C(N)=O)sc1-c1ccnc(C(C)(C)C(F)(F)F)c1 [Alpelisib] (partner 2 µM)
Put shortly: as §1

Consider SK-LU-1, for which the relative viability turned out to be 0.404 with Irinotecan + Crizotinib (first compound 0.6325 µM); 0.572 in the experiment with Irinotecan + Crizotinib (first compound 2 µM); 0.474 with Irinotecan + Crizotinib (first compound 6.325 µM); 0.463 with Irinotecan + Crizotinib (first compound 20 µM); 0.459 in the experiment with Irinotecan + Alpelisib (first compound 0.6325 µM); 0.541 with Irinotecan + Alpelisib (first compound 2 µM). In addition, the relative viability with Irinotecan + Alpelisib (first compound 6.325 µM) is 0.351; in the experiment with Irinotecan + Alpelisib (first compound 20 µM), 0.273; in the experiment with MK-8033 + Alpelisib (first compound 0.02 µM), 1; in the experiment with MK-8033 + Alpelisib (first compound 0.06325 µM) it was 1.04; with MK-8033 + Alpelisib (first compound 0.2 µM), 0.806; in the experiment with MK-8033 + Alpelisib (first compound 0.6325 µM), 1.02. For the same cell line, the relative viability with MK-8033 + Alpelisib (first compound 2 µM) came to 0.988; with RU-SKI 43 + Alpelisib (first compound 0.1 µM), 0.931; with RU-SKI 43 + Alpelisib (first compound 0.3162 µM) it was 1.31; with RU-SKI 43 + Alpelisib (first compound 1 µM), 1.25; with RU-SKI 43 + Alpelisib (first compound 3.162 µM), 1.13; with RU-SKI 43 + Alpelisib (first compound 10 µM) it was 1.01.
On to SK-MES-1, for which the relative viability with Irinotecan + Crizotinib (first compound 0.6325 µM) was 0.93; with Irinotecan + Crizotinib (first compound 2 µM), 0.767; in the experiment with Irinotecan + Crizotinib (first compound 6.325 µM), 0.272; with Irinotecan + Crizotinib (first compound 20 µM), 0.298; in the experiment with Irinotecan + Alpelisib (first compound 0.6325 µM) it was 0.997; in the experiment with Irinotecan + Alpelisib (first compound 2 µM), 0.877. For the same cell line, the relative viability in the experiment with Irinotecan + Alpelisib (first compound 6.325 µM) is 0.426; with Irinotecan + Alpelisib (first compound 20 µM) it was 0.267; with MK-8033 + Alpelisib (first compound 0.02 µM), 0.927; in the experiment with MK-8033 + Alpelisib (first compound 0.06325 µM), 0.811; with MK-8033 + Alpelisib (first compound 0.2 µM) it was 0.89; with MK-8033 + Alpelisib (first compound 0.6325 µM), 0.936. Moreover, the relative viability turned out to be 0.96 with MK-8033 + Alpelisib (first compound 2 µM); 0.893 with RU-SKI 43 + Alpelisib (first compound 0.1 µM); 0.879 in the experiment with RU-SKI 43 + Alpelisib (first compound 0.3162 µM); 1.01 with RU-SKI 43 + Alpelisib (first compound 1 µM); 1.15 in the experiment with RU-SKI 43 + Alpelisib (first compound 3.162 µM); 0.892 with RU-SKI 43 + Alpelisib (first compound 10 µM).
SW 1573: the relative viability in the experiment with Irinotecan + Crizotinib (first compound 0.6325 µM) amounted to 0.626; with Irinotecan + Crizotinib (first compound 2 µM), 0.43; with Irinotecan + Crizotinib (first compound 6.325 µM), 0.189; in the experiment with Irinotecan + Crizotinib (first compound 20 µM), 0.197; with Irinotecan + Alpelisib (first compound 0.6325 µM) it was 0.829; with Irinotecan + Alpelisib (first compound 2 µM) it was 0.481. Also, the relative viability with Irinotecan + Alpelisib (first compound 6.325 µM) was 0.192; with Irinotecan + Alpelisib (first compound 20 µM) it was 0.204; with MK-8033 + Alpelisib (first compound 0.02 µM), 0.817; with MK-8033 + Alpelisib (first compound 0.2 µM) it was 0.698; with MK-8033 + Alpelisib (first compound 0.6325 µM) it was 0.687; in the experiment with MK-8033 + Alpelisib (first compound 2 µM), 0.719. Also, the relative viability with RU-SKI 43 + Alpelisib (first compound 0.1 µM) came to 0.884; with RU-SKI 43 + Alpelisib (first compound 0.3162 µM), 0.937; in the experiment with RU-SKI 43 + Alpelisib (first compound 1 µM), 0.695; with RU-SKI 43 + Alpelisib (first compound 3.162 µM), 0.793; with RU-SKI 43 + Alpelisib (first compound 10 µM), 0.637.
